Key:
[1] = test system: glutathione-reductase (EC 1.6. 4.2); test: Elicitation of glutathione-reductase activity in protoplasts; type: cell-based, Rubus fruticosus L.; conditions: for Optimal glutathione reductase elicitation response (100% = non-elicited controls): at the optimal dose
Excerpt: Preparation of Rubus fruticosus L. protoplasts according to Vargas-Rechia et al. (1998). The protoplast yield is of the order of 70 to 85% of the initial number of cells used; the viability of the protoplasts, of the order of 90 to 95%, was checked using Evans blue indicator.
Glutathione-reductase (GR) activity assay according to Jahnke L S et al. (1991):
GSSG (glutathione in oxidized form) is reduced to GSH (glutathione in reduced form) by the enzyme glutathione-reductase (EC 1.6. 4.2); the reaction is coupled with the oxidation of NADPH to NADP in the catalytic cycle (glutathione, glutathione-reductase, NADPH). The glutathione-reductase activity is measured by evaluating the formation of NADP in the medium, which is carried out by monitoring the absorbance reduction at 340 nm.
Test: 4.10^6 protoplasts in 1 ml of Tris-HCl buffer (pH 4.8) are incubated at 10° C., 15° C., 25° C. in the presence of the elicitor (0 to 100 μM): 2′-fucosyl lactose (compound A), xyloglucan XXFGol (compound B). After interaction for 10 minutes, an enzymatic extract is prepared according to Jahnke et al. (1991), and a 16.000 g aliquot of the supernatant (equivalent to 1 μg of proteins) is introduced into the pH 7.8 reaction medium (80 mM K2PO4, 500 μM GSSG, 150 μM NADPH, 200 μM DTPA) for the glutathione-reductase activity assay; the A340 recording is carried out for 1 minute using a Beckman D U 640 spectrophotometer.
Evaluation of the experimental data: The reaction rate is given by ΔA340 min^−1. At least three kinetic curves are plotted per experimental condition and per sample. One point on the graph corresponds to the value of the slope of the regression curve deduced from at least 6 kinetic curves.
The elicitation response is evaluated by measuring the formation of NADP at 340 nm. The 100% reference value corresponds to the NADP content in the controls (non-elicited protoplast suspensions).

[2] = test system: Rubus fruticosus protoplasts; test: Elicitation of an oxidative burst: generation of H2O2 (pyranine quenching); type: cell-based; conditions: 25° C.
Experimental: Preparation of Rubus fruticosus protoplasts according to Vargas-Rechia (1998). The protoplast yield is of the order of 70 to 85% of the initial number of cells used; the viability of the protoplasts, of the order of 90 to 95%, was checked using Evans blue indicator.
H2O2 assay according to Apostol et al. (1989). Incubation at different temperatures of 1.10^6 protoplasts in microplate wells in the presence of 2 μM pyranine λex 405 nm, λcm 512 nm), of the elicitor (0 to 100 μM): 2′-fucosyl-lactose (compound A), xyloglucan XXFGol, corresponding to the reduced form of fucosylated nonasaccharide of which the sugar X4 is in reduced form (compound B). The variations in pyranine fluorescence (ΔF512 min^−1) allow H2O2 assay.
Evaluation of the experimental data: The reaction rate is given by (ΔF512 min^−1). At least three kinetic curves are plotted per sample and per experimental condition. One point on the graph corresponds to the slope of the regression curve deduced from at least 6 kinetic curves.
The oxidative “burst” is evaluated according to the “quenching ” of the pyranine at 25° C.; the 100% reference value corresponds to the fluorescence in the controls (non-elicited protoplast suspensions)

Elicitor dose of optimal glutathione reductase elicitation response ([1]; 10° C.): 25 nM | Optimal glutathione reductase elicitation response (100% = non-elicited controls) ([1]; 10° C.): 2500% | Elicitor dose of optimal glutathione reductase elicitation response ([1]; 15° C.): 100 nM | Optimal glutathione reductase elicitation response (100% = non-elicited controls) ([1]; 15° C.): 780% | Glutathione reductase elicitation response ([1]; 25° C.): no significant response
SMILES: C[C@@H]1O[C@@H](O[C@H]2[C@H](O[C@H]3[C@H](O)[C@@H](O)[C@H](O)O[C@@H]3CO)O[C@H](CO)[C@H](O)[C@@H]2O)[C@@H](O)[C@H](O)[C@@H]1O [compound A, α-L-Fuc(1→2)β-D-Gal(1→4)β-D-Glc]
Peroxide accumulation, effect of temperature ([2]; 10 nM, 20° C., 15° C., 10° C.): lower at a low temperature | Elicitor dose of optimal response, generation of H2O2 ([2]; pyranine quenching): 10 nM | Optimal response, generation of H2O2 (100% = non-elicited controls) ([2]; at the optimal dose): 225%

From US20040023924A1, “Use of xyloglucan polymers and oligomers, and derivative compounds, as phytosanitary products and biofertilizers” (priority 2000, published 2004)
